Data: US20090270398A1, “Compounds, Compositions and Methods Comprising Pyridazine Derivatives” (Institute for OneWorld Health, priority 2008, published 2009)
pIC50: −log10 of the molar value.

Tested on: cholera toxin (CTX)-induced net fluid secretion in intestinal loops
Assay: not given
Assay type: in vivo, mice (CD1 strain)
Conditions: 4 hours

SMILES | closed loop % inhibition @ 100 μg
OCCN(Cc1ccccc1)c1ccc(-c2cc(Cl)c(O)c(Cl)c2)nn1 [Compound 98, 4-(6-(benzyl(2-hydroxyethyl)amino)pyridazin-3-yl)-2,6-dichlorophenol] | 67.0%
CCN(Cc1ccccc1)c1ccc(-c2cc(Cl)c(O)c(Cl)c2)nn1 [Compound 115, 4-(6-(benzyl(ethyl)amino)pyridazin-3-yl)-2,6-dichlorophenol] | 79.4%

Target: T1, CFTR (Homo sapiens, UniProt P13569)
T1 construct: results in the phosphorylation and opening of CFTR anion channels
T1 sequence (P13569 whole entry): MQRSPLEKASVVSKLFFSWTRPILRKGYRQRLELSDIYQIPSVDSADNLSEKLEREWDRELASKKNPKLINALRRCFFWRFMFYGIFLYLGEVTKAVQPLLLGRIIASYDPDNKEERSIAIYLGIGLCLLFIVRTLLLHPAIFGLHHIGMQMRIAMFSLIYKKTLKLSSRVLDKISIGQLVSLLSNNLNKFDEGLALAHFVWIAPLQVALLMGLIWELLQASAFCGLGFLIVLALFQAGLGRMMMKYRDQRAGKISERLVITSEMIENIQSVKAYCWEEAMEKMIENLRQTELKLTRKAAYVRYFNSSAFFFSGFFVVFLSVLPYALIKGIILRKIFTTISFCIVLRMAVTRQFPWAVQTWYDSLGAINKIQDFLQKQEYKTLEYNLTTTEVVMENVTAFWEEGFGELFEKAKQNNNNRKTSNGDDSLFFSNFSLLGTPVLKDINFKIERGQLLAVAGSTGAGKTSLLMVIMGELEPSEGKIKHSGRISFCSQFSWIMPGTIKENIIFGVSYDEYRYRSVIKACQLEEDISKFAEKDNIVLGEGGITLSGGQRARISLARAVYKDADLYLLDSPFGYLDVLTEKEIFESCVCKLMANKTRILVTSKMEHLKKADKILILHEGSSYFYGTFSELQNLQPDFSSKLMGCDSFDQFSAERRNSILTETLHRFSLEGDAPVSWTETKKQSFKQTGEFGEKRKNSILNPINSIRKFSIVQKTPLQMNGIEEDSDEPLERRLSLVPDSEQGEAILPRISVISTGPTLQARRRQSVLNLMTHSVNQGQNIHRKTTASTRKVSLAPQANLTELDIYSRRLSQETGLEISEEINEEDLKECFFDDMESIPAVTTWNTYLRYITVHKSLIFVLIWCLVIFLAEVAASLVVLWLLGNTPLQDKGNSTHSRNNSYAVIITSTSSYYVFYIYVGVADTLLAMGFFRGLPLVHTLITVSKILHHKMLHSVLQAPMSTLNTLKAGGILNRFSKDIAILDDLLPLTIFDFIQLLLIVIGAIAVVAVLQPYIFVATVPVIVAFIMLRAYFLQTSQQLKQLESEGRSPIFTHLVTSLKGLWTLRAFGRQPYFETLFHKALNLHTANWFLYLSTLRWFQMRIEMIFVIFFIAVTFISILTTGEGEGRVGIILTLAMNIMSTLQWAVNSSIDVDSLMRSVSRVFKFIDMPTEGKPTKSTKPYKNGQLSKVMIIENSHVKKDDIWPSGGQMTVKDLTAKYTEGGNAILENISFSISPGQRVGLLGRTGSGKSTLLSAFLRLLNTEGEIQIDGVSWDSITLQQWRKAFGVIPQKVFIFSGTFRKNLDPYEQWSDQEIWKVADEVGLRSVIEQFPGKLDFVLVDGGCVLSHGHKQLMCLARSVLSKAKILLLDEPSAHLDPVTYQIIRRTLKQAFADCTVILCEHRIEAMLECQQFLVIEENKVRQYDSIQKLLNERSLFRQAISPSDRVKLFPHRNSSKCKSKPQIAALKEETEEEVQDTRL
Assay: T84 assay (FLIPR membrane potential, forskolin/IBMX-stimulated CFTR channel activity)
Assay type: cell-based
Conditions: average of at least 2 runs unless annotated n = 1
Description: (§1) For example, Human colonic T84 cells can be acquired from the European Collection of Cell Cultures (ECACC) and grown in standard culture conditions as described by the supplier. On the day before assay 25,000 T84 cells per well are plated into standard black walled, clear bottom 384-well assay plates in standard growth medium consisting of DMEM:F12 with 10% FBS and incubated overnight. On the day of the assay the plates are washed using a standard assay buffer (HBSS with 10 mM Hepes) and incubated for 15 minutes in serum free cell culture medium before the addition of a commercially available membrane potential sensitive fluorescent dye (FLIPR Red membrane potential dye, Molecular Devices Corporation). T84 cells are incubated with the FLIPR Red membrane potential dye for 45 minutes in the presence and absence of test compound before being transferred to a commercially available fluorescence imaging plate reader (FLIPR384, Molecular Devices Corporation). Fluorescence levels are monitored continuously every second for 150 seconds; after an initial 10 second baseline, CFTR channel activity is stimulated through the addition of 10 μM forskolin in the presence of 100 μM of the phosphodiesterase inhibitor iso-butyl-methylxanthine (IBMX). Addition of the forskolin leads to the activation of intracellular adenylyl cylase 1, elevating cAMP levels and results in the phosphorylation and opening of CFTR anion channels. CFTR channel opening causes chloride ion efflux and subsequent depolarization of the cells, which is measured by an increase in fluorescence. CFTR inhibitor compounds prevent cell depolarization and the associated increase in fluorescence.
as §1, with “Human colonic” for “For example, Human colonic”, “T84 cells are acquired from” for “T84 cells can be acquired from”, “(ECACC) and are grown in” for “(ECACC) and grown in”
Unless otherwise indicated, the IC50 values are reported as an average of at least 2 runs. Where only 1 run is used, this is indicated by the annotation “n=1.”

SMILES | pIC50
OCCN(Cc1ccccc1)c1ccc(-c2cc(Cl)c(O)c(Cl)c2)nn1 [Compound 98, 4-(6-(benzyl(2-hydroxyethyl)amino)pyridazin-3-yl)-2,6-dichlorophenol] | 6.20
OCCN(Cc1cccc(Cl)c1Cl)c1ccc(-c2cc(Cl)c(O)c(Cl)c2)nn1 [Compound 123, 2,6-dichloro-4-(6-((2,3-dichlorobenzyl)(2-hydroxyethyl)amino)pyridazin-3-yl)phenol] | 5.85
Oc1c(Br)cc(-c2ccc(OCc3ccc(F)cc3Cl)nn2)cc1Br [Compound 89, 2,6-dibromo-4-(6-(2-chloro-4-fluorobenzyloxy)pyridazin-3-yl)phenol] | 5.22
Oc1c(Cl)cc(-c2ccc(OCc3cnc(Br)s3)nn2)cc1Cl [Compound 105, 4-(6-((2-bromothiazol-5-yl)methoxy)pyridazin-3-yl)-2,6-dichlorophenol] | 4.68
Oc1c(Br)cc(-c2ccc(OCCc3ccc(Cl)cc3)nn2)cc1Br [Compound 92, 2,6-dibromo-4-(6-(4-chlorophenethoxy)pyridazin-3-yl)phenol] | 5.47
Oc1c(Br)cc(-c2ccc(OCc3cccc4ccccc34)nn2)cc1Br [Compound 95, 2,6-dibromo-4-(6-(naphthalen-1-ylmethoxy)pyridazin-3-yl)phenol] | 5.10
CCOc1ccc(CN(CC)c2ccc(-c3cc(Cl)c(O)c(Cl)c3)nn2)cc1OC [Compound 129, 2,6-dichloro-4-(6-((4-ethoxy-3-methoxybenzyl)(ethyl)amino)pyridazin-3-yl)phenol] | 5.94
CC(Oc1ccc(-c2cc(Br)c(O)c(Br)c2)nn1)c1cccc(Cl)c1 (centres unmarked) [Compound 90, 2,6-dibromo-4-(6-(1-(3-chlorophenyl)ethoxy)pyridazin-3-yl)phenol] | 4.75
Oc1c(Br)cc(-c2ccc(OCCc3ccc(Br)cc3)nn2)cc1Br [Compound 93, 2,6-dibromo-4-(6-(4-bromophenethoxy)pyridazin-3-yl)phenol] | 5.38
Oc1c(Br)cc(-c2ccc(OCc3cccc(Cl)c3Cl)nn2)cc1Br [Compound 99, 2,6-dibromo-4-(6-(2,3-dichlorobenzyloxy)pyridazin-3-yl)phenol] | 4.90
OCCN(Cc1ccncc1)c1ccc(-c2cc(Cl)c(O)c(Cl)c2)nn1 [Compound 116, 2,6-dichloro-4-(6-((2-hydroxyethyl)(pyridin-4-ylmethyl)amino)pyridazin-3-yl)phenol] | 4.78
CCN(Cc1ccc(OC)c(F)c1)c1ccc(-c2cc(Cl)c(O)c(Cl)c2)nn1 [Compound 131, 2,6-dichloro-4-(6-(ethyl(3-fluoro-4-methoxybenzyl)amino)pyridazin-3-yl)phenol] | 5.84
Oc1c(Cl)cc(-c2ccc(OCc3ccc(F)cc3Cl)nn2)cc1Cl [Compound 96, 2,6-dichloro-4-(6-(2-chloro-4-fluorobenzyloxy)pyridazin-3-yl)phenol] | 5.43
CCN(Cc1ccccc1)c1ccc(-c2cc(Cl)c(O)c(Cl)c2)nn1 [Compound 115, 4-(6-(benzyl(ethyl)amino)pyridazin-3-yl)-2,6-dichlorophenol] | 8.00
Oc1c(Cl)cc(-c2ccc(NCc3ccccc3)nn2)cc1Cl [Compound 110, 4-(6-(benzylamino)pyridazin-3-yl)-2,6-dichlorophenol] | 6.14
